From US20250179103A1, “6-OXODECAHYDROPYRROLO[1,2-A][1,5]DIAZOCINE AND 6-OXODECAHYDRO-4H-PYRROLO[2,1-D][1,5]THIAZOCINE DERIVATIVES AS STAT3 AND STAT6 MODULATORS FOR THE TREATMENT OF CANCER AND INFLAMMATORY CONDITIONS” (Recludix Pharma, Inc., priority 2022, published 2025)

Experiments:
[1] = target: T1, Recombinant STAT6 protein (STAT6(W123-T658)) (Homo sapiens, UniProt P42226); assay: STAT6 Fluorescence Polarization (FP) Assay; format: binding; details: STAT6(W123-T658) 250 nM, probe 5-FAM-ApYKPFQDLI-NH2 2 nM, 45-minute incubation
T1 construct: Recombinant STAT6 protein (STAT6(W123-T658))
T1 sequence (P42226 123-658): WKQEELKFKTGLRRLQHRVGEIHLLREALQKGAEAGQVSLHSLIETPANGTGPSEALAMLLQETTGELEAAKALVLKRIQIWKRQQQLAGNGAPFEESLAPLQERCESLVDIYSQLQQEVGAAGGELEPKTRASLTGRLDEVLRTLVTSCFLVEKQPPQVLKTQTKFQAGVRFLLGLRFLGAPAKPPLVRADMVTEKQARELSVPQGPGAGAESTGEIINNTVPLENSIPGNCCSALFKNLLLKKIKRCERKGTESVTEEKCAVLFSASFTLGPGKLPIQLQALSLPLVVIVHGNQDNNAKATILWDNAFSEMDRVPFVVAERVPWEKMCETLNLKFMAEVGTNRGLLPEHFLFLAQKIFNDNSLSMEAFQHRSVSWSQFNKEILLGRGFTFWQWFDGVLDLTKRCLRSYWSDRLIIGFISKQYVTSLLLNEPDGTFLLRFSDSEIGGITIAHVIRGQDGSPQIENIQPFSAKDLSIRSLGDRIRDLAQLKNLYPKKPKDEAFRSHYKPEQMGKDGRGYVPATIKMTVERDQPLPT
How it was run: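 Displacement of a fluorescent phosphotyrosine peptide (5-FAM-ApYKPFQDLI-NH2, 2 nM) from STAT6(W123-T658) (250 nM), 1% DMSO, pH 7.4 HEPES buffer. After 45 min at room temperature, polarization (mP) was plotted versus log compound concentration and fitted by nonlinear regression to give IC50.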

[2] = target: T2, Recombinant STAT3 protein (STAT3(G127-I722)) (Homo sapiens, UniProt P40763); assay: STAT3 Fluorescence Polarization (FP) Assay; format: binding; details: STAT3(G127-I722) 25 nM, probe 5-FAM-GpYLPQTV-NH2 2 nM, 45-minute incubation
T2 construct: Recombinant STAT3 protein (STAT3(G127-I722))
T2 sequence (P40763 127-722): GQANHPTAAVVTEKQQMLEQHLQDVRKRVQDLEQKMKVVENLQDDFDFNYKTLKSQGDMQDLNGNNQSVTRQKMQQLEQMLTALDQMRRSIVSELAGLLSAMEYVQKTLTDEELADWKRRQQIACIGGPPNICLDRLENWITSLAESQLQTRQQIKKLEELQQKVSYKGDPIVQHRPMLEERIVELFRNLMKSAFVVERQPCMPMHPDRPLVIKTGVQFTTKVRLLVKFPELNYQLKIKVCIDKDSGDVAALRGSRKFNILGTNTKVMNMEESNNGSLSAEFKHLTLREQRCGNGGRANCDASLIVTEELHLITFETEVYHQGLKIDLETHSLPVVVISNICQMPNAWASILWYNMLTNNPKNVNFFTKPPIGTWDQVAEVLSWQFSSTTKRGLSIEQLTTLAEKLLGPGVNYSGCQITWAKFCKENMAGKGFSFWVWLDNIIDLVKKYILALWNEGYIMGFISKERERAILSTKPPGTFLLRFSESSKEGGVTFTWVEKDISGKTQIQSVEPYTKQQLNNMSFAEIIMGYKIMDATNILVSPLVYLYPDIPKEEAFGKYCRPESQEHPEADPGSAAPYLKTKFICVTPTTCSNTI
How it was run: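 STAT3(G127-I722), 25 nM, was mixed with 2 nM 5-FAM-GpYLPQTV-NH2 probe in HEPES pH 7.4 buffer with 1% DMSO and serially diluted compound. FP (mP) was read after 45 min at room temperature. IC50 came from nonlinear regression.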

Compound `CC(=O)N1CC[C@H]2CC[C@@H](C(=O)Nc3ccc(-c4ccccc4)cc3[N+](=O)[O-])N2C(=O)[C@@H](NC(=O)c2cc3cc(C(F)(F)P(=O)(O)O)ccc3s2)C1` [Compound 178] has an IC50 [1] of 0.3 to 3 µM and an IC50 [2] of 0.1 to 1 µM.
`CC(=O)N[C@H]1CCC[C@@H]1NC(=O)[C@@H]1CC[C@@H]2CCN(C(C)=O)C[C@H](NC(=O)c3cc4cc(C(F)(F)P(=O)(O)O)ccc4[nH]3)C(=O)N21` [Compound 32, ((2-(((5S,8S,10aR)-8-(((1S,2S)-2-acetamidocyclopentyl)carbamoyl)-3-acetyl-6-oxodecahydropyrrolo[1,2-a][1,5]diazocin-5-yl)carbamoyl)-1H-indol-5-yl)difluoromethyl)phosphonic acid] gave an IC50 [1] of 3 to 30 µM and an IC50 [2] of 1 to 10 µM.
`CC(=O)N1CC[C@H]2CC[C@@H](C(=O)N(C)c3ccc(-c4ccccc4)cc3)N2C(=O)[C@@H](NC(=O)c2cc3cc(C(F)(F)P(=O)(O)O)ccc3[nH]2)C1` [Compound 53, ((2-(((5S,8S,10aR)-8-([1,1′-biphenyl]-4-yl(methyl)carbamoyl)-3-acetyl-6-oxodecahydropyrrolo[1,2-a][1,5]diazocin-5-yl)carbamoyl)-1H-indol-5-yl)difluoromethyl)phosphonic acid] was tested, and the IC50 [1] was 0.3 to 3 µM and the IC50 [2] was 1 to 10 µM.
For `Cc1ccc2onc(C(=O)N3CC[C@H]4CC[C@@H](C(=O)N5CCN(c6nsc7ccccc67)CC5)N4C(=O)[C@@H](NC(=O)c4ccc5ccc(C(F)P(=O)(O)O)cc5c4)C3)c2c1` (stereo partly drawn) [Compound 369, ((7-(((5S,8S,10aR)-8-(4-(benzo[d]isothiazol-3-yl)piperazine-1-carbonyl)-3-(5-methylbenzo[d]isoxazole-3-carbonyl)-6-oxodecahydropyrrolo [1,2-a][1,5]diazocin-5-yl)carbamoyl)naphthalen-2-yl)fluoromethyl) phosphonic acid], the IC50 [1] was no more than 0.3 µM and the IC50 [2] was 1 to 10 µM.
Compound `Cc1ccc2[nH]nc(C(=O)N3CC[C@H]4CC[C@@H](C(=O)N(C)C)N4C(=O)[C@@H](NC(=O)c4cc5cc(C(F)(F)P(=O)(O)O)ccc5s4)C3)c2c1` [Compound 231, ((2-(((5S,8S,10aR)-8-(dimethylcarbamoyl)-3-(5-methyl-1H-indazole-3-carbonyl)-6-oxodecahydropyrrolo[1,2-a][1,5]diazocin-5-yl)carbamoyl)benzo[b]thiophen-5-yl)difluoromethyl)phosphonic acid] has an IC50 [1] of no more than 0.3 µM and an IC50 [2] of 1 to 10 µM.
Work on `COc1ccc(N(C)C(=O)[C@@H]2CC[C@@H]3CCN(C(C)=O)C[C@H](NC(=O)c4cc5cc(C(F)(F)P(=O)(O)O)ccc5[nH]4)C(=O)N32)cc1` [Compound 166, ((2-(((5S,8S,10aR)-3-acetyl-8-((4-methoxyphenyl)(methyl)carbamoyl)-6-oxodecahydropyrrolo[1,2-a][1,5]diazocin-5-yl)carbamoyl)-1H-indol-5-yl)difluoromethyl)phosphonic acid] yielded an IC50 [1] of 0.3 to 3 µM and an IC50 [2] of 1 to 10 µM.
`CC(=O)N1CC[C@H]2CC[C@@H](C(=O)N(C)c3ccc(Cl)c(Cl)c3)N2C(=O)[C@@H](NC(=O)c2cc3cc(C(F)(F)P(=O)(O)O)ccc3s2)C1` [Compound 188, ((2-(((5S,8S,10aR)-3-acetyl-8-((3,4-dichlorophenyl)(methyl)carbamoyl)-6-oxodecahydropyrrolo[1,2-a][1,5]diazocin-5-yl)carbamoyl)benzo[b]thiophen-5-yl)difluoromethyl)phosphonic acid] was tested, and the IC50 [1] was 0.3 to 3 µM and the IC50 [2] was 1 to 10 µM.
`CC(=O)N1CC[C@H]2CC[C@@H](C(=O)N(C)c3ccc(C(F)F)cc3)N2C(=O)[C@@H](NC(=O)c2cc3cc(C(F)(F)P(=O)(O)O)ccc3s2)C1` [Compound 202, ((2-(((5S,8S,10aR)-3-acetyl-8-((4-(difluoromethyl)phenyl)(methyl)carbamoyl)-6-oxodecahydropyrrolo[1,2-a][1,5]diazocin-5-yl)carbamoyl)benzo[b]thiophen-5-yl)difluoromethyl)phosphonic acid] was tested, and the IC50 [1] was 0.3 to 3 µM and the IC50 [2] was 1 to 10 µM.
`CC(=O)N1CC[C@H]2CC[C@@H](C(=O)N3Cc4cnn(-c5ncccn5)c4C3)N2C(=O)[C@@H](NC(=O)c2cc3cc(C(F)(F)P(=O)(O)O)ccc3s2)C1` [Compound 87, ((2-(((5S,8S,10aR)-3-acetyl-6-oxo-8-(1-(pyrimidin-2-yl)-1,4,5,6-tetrahydropyrrolo[3,4-c]pyrazole-5-carbonyl)decahydropyrrolo[1,2-a][1,5]diazocin-5-yl)carbamoyl)benzo[b]thiophen-5-yl)difluoromethyl)phosphonic acid] was tested, and the IC50 [1] was 0.3 to 3 µM and the IC50 [2] was 1 to 10 µM.
`Cc1ccc2onc(C(=O)N3CC[C@H]4CC[C@@H](C(=O)N5CCOCC5)N4C(=O)[C@@H](NC(=O)c4ccc5c(F)cc(CP(=O)(O)O)cc5c4)C3)c2c1` [Compound 379, ((4-fluoro-7-(((5S,8S, 10aR)-3-(5-methylbenzo[d]isoxazole-3-carbonyl)-8-(morpholine-4-carbonyl)-6-oxodecahydropyrrolo [1,2-a][1,5]diazocin-5-yl)carbamoyl)naphthalen-2-yl)methyl)phosphonic acid] showed an IC50 [1] of 0.3 to 3 µM and an IC50 [2] greater than 10 µM.
Compound `CC(=O)N1CC[C@H]2CC[C@@H](C(=O)N(C)c3ccccc3)N2C(=O)[C@@H](NC(=O)c2ccc3ccc(CP(=O)(O)O)cc3c2)C1` [Compound 15, ((7-(((5S,8S,10aR)-3-acetyl-8-(methyl(phenyl)carbamoyl)-6-oxodecahydropyrrolo[1,2-a][1,5]diazocin-5-yl)carbamoyl)naphthalen-2-yl)methyl)phosphonic acid] has an IC50 [1] of 3 to 30 µM and an IC50 [2] greater than 10 µM.
`Cc1ccc2onc(C(=O)N3CC[C@H]4CC[C@@H](C(=O)N5C[C@@H](C#N)[C@H](c6ccccc6)C5)N4C(=O)[C@@H](NC(=O)c4ccc5ccc(C(F)(F)P(=O)(O)O)cc5c4)C3)c2c1` (single isomer, unassigned) [Compound 375] was tested, and the IC50 [1] was no more than 0.3 µM and the IC50 [2] was 1 to 10 µM.
With `CC(=O)N1CC[C@H]2CC[C@@H](C(=O)NC3COc4ccc(Cl)cc4C3)N2C(=O)[C@@H](NC(=O)c2cc3cc(C(F)(F)P(=O)(O)O)ccc3s2)C1` (stereo partly drawn) [Compound 127, ((2-(((5S,8S,10aR)-3-acetyl-8-((6-chlorochroman-3-yl)carbamoyl)-6-oxodecahydropyrrolo[1,2-a][1,5]diazocin-5-yl)carbamoyl)benzo[b]thiophen-5-yl)difluoromethyl)phosphonic acid] the IC50 [1] was 0.3 to 3 µM and the IC50 [2] was 0.1 to 1 µM.
In the case of `CC(C)CN1CC[C@H]2CC[C@@H](C(=O)N(C)C)N2C(=O)[C@@H](NC(=O)c2cc3cc(C(F)(F)P(=O)(O)O)ccc3[nH]2)C1` [Compound 224, ((2-(((5S,8S,10aR)-8-(dimethylcarbamoyl)-3-isobutyl-6-oxodecahydropyrrolo[1,2-a][1,5]diazocin-5-yl)carbamoyl)-1H-indol-5-yl)difluoromethyl)phosphonic acid], the IC50 [1] is reported as 3 to 30 µM and the IC50 [2] is reported as 1 to 10 µM.
In the case of `CC(=O)N1CC[C@H]2CC[C@@H](C(=O)N(C)c3ccc(OCCN(C)C)cc3)N2C(=O)[C@@H](NC(=O)c2cc3cc(C(F)(F)P(=O)(O)O)ccc3[nH]2)C1` [Compound 102, ((2-(((5S,8S,10aR)-3-acetyl-8-((4-(2-(dimethylamino)ethoxy)phenyl)(methyl)carbamoyl)-6-oxodecahydropyrrolo[1,2-a][1,5]diazocin-5-yl)carbamoyl)-1H-indol-5-yl)difluoromethyl)phosphonic acid], the IC50 [1] is reported as 0.3 to 3 µM and the IC50 [2] is reported as 1 to 10 µM.
